# Source: patent US12077503B2, “Substituted cyclic amides and their use as herbicides” (FMC CORPORATION, priority 2015, dated 2024)
# Experiments:
# Format in all cases: in vivo
# Kochia (Kochia scoparia) [1] = experiment: Test A preemergence
# Outline: (§1)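 Seeded soil received test chemicals as a preemergence directed spray, and seedlings at one to two leaves, 2–10 cm tall, received them postemergence, in a non-phytotoxic, surfactant-containing solvent mixture. Pots were held in a greenhouse for approximately 10 d, then rated for injury from 0, no effect, to 100, complete control.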
# [2] = test system: barnyardgrass (Echinochloa crus-galli); experiment: Test A preemergence
# Outline: as §1
# [3] = test system: giant foxtail (Setaria faberii); experiment: Test A preemergence
# Outline: as §1
# [4] = test system: pigweed (Amaranthus retroflexus); experiment: Test A preemergence
# [5] = test system: ragweed (common ragweed, Ambrosia elatior); experiment: Test A preemergence
# Outline: as §1
# [6] = test system: ryegrass, Italian (Italian ryegrass, Lolium multiflorum); experiment: Test A preemergence
# Outline: as §1
# [7] = test system: Galium (catchweed bedstraw, Galium aparine); experiment: Test A postemergence
# Outline: as §1
# Kochia (Kochia scoparia) [8] = experiment: Test A postemergence
# Outline: as §1
# [9] = test system: barnyardgrass (Echinochloa crus-galli); experiment: Test A postemergence
# Outline: as §1
# [10] = test system: blackgrass (Alopecurus myosuroides); experiment: Test A postemergence
# Outline: as §1
# corn (Zea mays) = experiment: Test A postemergence
# Outline: as §1
# [11] = test system: giant foxtail (Setaria faberii); experiment: Test A postemergence
# Outline: as §1
# [12] = test system: pigweed (Amaranthus retroflexus); experiment: Test A postemergence
# Outline: as §1
# [13] = test system: ragweed (common ragweed, Ambrosia elatior); experiment: Test A postemergence
# Outline: as §1
# [14] = test system: ryegrass, Italian (Italian ryegrass, Lolium multiflorum); experiment: Test A postemergence
# Outline: as §1
# [15] = test system: wheat (Triticum aestivum); experiment: Test A postemergence
# Outline: as §1
# [16] = test system: barnyardgrass (Echinochloa crus-galli); experiment: Test B flooded paddy test; conditions: Flood, 0 to 100 scale where 0 is no effect and 100 is complete control, 13 to 15 d
# Outline: (§2)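 2-leaf plants; pots flooded 3 cm over soil; cpd added to paddy water; depth held; greenhouse 13–15 d; visual rating vs controls, 0 = no effect, 100 = complete control.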
# [17] = test system: ducksalad (Heteranthera limosa); experiment: Test B flooded paddy test; conditions: Flood, 0 to 100 scale where 0 is no effect and 100 is complete control, 13 to 15 d
# Outline: as §2
# rice (Oryra sativa) = experiment: Test B flooded paddy test; conditions: Flood, 0 to 100 scale where 0 is no effect and 100 is complete control, 13 to 15 d
# Outline: as §2
# [18] = test system: sedge, umbrella (small-flower umbrella sedge, Cyperus difformis); experiment: Test B flooded paddy test; conditions: Flood, 0 to 100 scale where 0 is no effect and 100 is complete control, 13 to 15 d
# Outline: as §2
# [19] = test system: johnsongrass (Sorghum halepense); experiment: Test C preemergence; conditions: for Plant response rating (scale of 0 to 100), Johnsongrass: 31 g ai/ha, 0 is no effect, 100 is complete control; for Plant response rating, Johnsongrass: scale 0 to 100, 0 no effect, 100 complete control
# Outline: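 Visual rating, 0–100 scale (0 = no effect, 100 = complete control) versus controls, 13–15 d after treatment. Compounds in non-phytotoxic solvent plus surfactant; applied preemergence to seeds in loam/sand soil or postemergence to 1- to 4-leaf plants (2–18 cm) in peat/vermiculite medium; greenhouse-held.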
# [20] = 125 g ai/ha, Preemergence, visual injury after approximately 10 d, 0 to 100 scale where 0 is no effect and 100 is complete control
# [21] = 500 g ai/ha, preemergence, 0 to 100 scale, 0 = no effect, 100 = complete control
# [22] = 125 g ai/ha, postemergence, visual rating after approx. 10 d, 0 to 100 scale (0 no effect, 100 complete control)
# [23] = 500 g ai/ha, postemergence, visual injury, 0 to 100 scale (0 no effect, 100 complete control), approx. 10 d
# [24] = Postemergence, 500 g ai/ha, 0 to 100 scale where 0 is no effect and 100 is complete control
# [25] = 125 g ai/ha, preemergence, visual rating after approx. 10 d, 0 to 100 scale where 0 is no effect and 100 is complete control
# [26] = 125 g ai/ha, postemergence, visual injury after approximately 10 d, 0 to 100 scale (0 no effect, 100 complete control)
smiles,measurement,setting,value
CN1CC(c2cccc(C(F)(F)F)c2)C(C(=O)Nc2ccccc2S(C)(=O)=O)C1=O (stereo not drawn) [Compound 637],"Plant response rating, Kochia",Kochia (Kochia scoparia) [1]; [20],40
same,"Plant response rating, Kochia",Kochia (Kochia scoparia) [1]; [21],60
same,"Plant response rating, Barnyardgrass",[2]; [20],90
same,"Plant response rating, Barnyardgrass",[2]; [21],90
same,"Plant response rating, Foxtail, Giant",[3]; [20],90
same,"Plant response rating, Foxtail, Giant",[3]; [21],100
same,"Plant response rating, Pigweed",[4]; [20],80
same,"Plant response rating, Pigweed",[4]; [21],100
same,"Plant response rating, Ragweed",[5]; [20],40
same,"Plant response rating, Ragweed",[5]; [21],70
same,"Plant response rating, Ryegrass, Italian",[6]; [20],50
same,"Plant response rating, Ryegrass, Italian",[6]; [21],90
same,"Plant response rating, Galium",[7]; [22],50
same,"Plant response rating, Galium",[7]; [23],50
same,"Plant response rating, Kochia",Kochia (Kochia scoparia) [8]; [22],0
same,"Plant response rating, Kochia",Kochia (Kochia scoparia) [8]; [23],30
same,"Plant response rating, Barnyardgrass",[9]; [22],90
same,"Plant response rating, Barnyardgrass",[9]; [24],90
same,"Plant response rating, Blackgrass",[10]; [22],50
same,"Plant response rating, Blackgrass",[10]; [24],60
same,"Plant response rating, Corn",corn (Zea mays); [22],70
same,"Plant response rating, Corn",corn (Zea mays); [24],70
same,"Plant response rating, Foxtail, Giant",[11]; [22],90
same,"Plant response rating, Foxtail, Giant",[11]; [23],90
same,"Plant response rating, Pigweed",[12]; [22],50
same,"Plant response rating, Pigweed",[12]; [23],60
same,"Plant response rating, Ragweed",[13]; [22],0
same,"Plant response rating, Ragweed",[13]; [23],20
same,"Plant response rating, Ryegrass, Italian",[14]; [22],20
same,"Plant response rating, Ryegrass, Italian",[14]; [23],20
same,"Plant response rating, Wheat",[15]; [22],70
same,"Plant response rating, Wheat",[15]; [23],70
same,"Plant response rating, Barnyardgrass",[16]; 250 g ai/ha,80
same,"Plant response rating, Ducksalad",[17]; 250 g ai/ha,100
same,"Plant response rating, Rice",rice (Oryra sativa); 250 g ai/ha,10
same,"Plant response rating, Sedge, Umbrella",[18]; 250 g ai/ha,0
same,"Plant response rating (scale of 0 to 100), Johnsongrass",[19],45
same,"Plant response rating, Johnsongrass",[19]; 62 g ai/ha,70
same,"Plant response rating, Johnsongrass",[19]; 125 g ai/ha,75
same,"Plant response rating, Johnsongrass",[19]; 250 g ai/ha,85
CN1CC(c2ccc(C(F)(F)F)cc2)C(C(=O)Nc2ccccc2S(C)(=O)=O)C1=O (stereo not drawn) [Compound 624],"Plant response rating, Kochia",Kochia (Kochia scoparia) [1]; [20],40
same,"Plant response rating, Kochia",Kochia (Kochia scoparia) [1]; [21],60
same,"Plant response rating, Barnyardgrass",[2]; [20],90
same,"Plant response rating, Barnyardgrass",[2]; [21],90
same,"Plant response rating, Foxtail, Giant",[3]; [20],90
same,"Plant response rating, Foxtail, Giant",[3]; [21],90
same,"Plant response rating, Pigweed",[4]; [20],80
same,"Plant response rating, Pigweed",[4]; [21],80
same,"Plant response rating, Ragweed",[5]; [20],60
same,"Plant response rating, Ragweed",[5]; [21],70
same,"Plant response rating, Ryegrass, Italian",[6]; [20],40
same,"Plant response rating, Ryegrass, Italian",[6]; [21],40
same,"Plant response rating, Galium",[7]; [22],30
same,"Plant response rating, Galium",[7]; [24],50
same,"Plant response rating, Kochia",Kochia (Kochia scoparia) [8]; [22],0
same,"Plant response rating, Kochia",Kochia (Kochia scoparia) [8]; [24],60
same,"Plant response rating, Barnyardgrass",[9]; [22],80
same,"Plant response rating, Barnyardgrass",[9]; [24],90
same,"Plant response rating, Blackgrass",[10]; [22],40
same,"Plant response rating, Blackgrass",[10]; [24],50
same,"Plant response rating, Corn",corn (Zea mays); [22],0
same,"Plant response rating, Corn",corn (Zea mays); [24],40
same,"Plant response rating, Foxtail, Giant",[11]; [22],80
same,"Plant response rating, Foxtail, Giant",[11]; [24],90
same,"Plant response rating, Pigweed",[12]; [22],20
same,"Plant response rating, Pigweed",[12]; [24],60
same,"Plant response rating, Ragweed",[13]; [22],0
same,"Plant response rating, Ragweed",[13]; [24],0
same,"Plant response rating, Ryegrass, Italian",[14]; [22],30
same,"Plant response rating, Ryegrass, Italian",[14]; [24],30
same,"Plant response rating, Wheat",[15]; [22],20
same,"Plant response rating, Wheat",[15]; [24],70
same,"Plant response rating, Barnyardgrass",[16]; 250 g ai/ha,70
same,"Plant response rating, Ducksalad",[17]; 250 g ai/ha,100
same,"Plant response rating, Rice",rice (Oryra sativa); 250 g ai/ha,20
same,"Plant response rating, Sedge, Umbrella",[18]; 250 g ai/ha,0
same,"Plant response rating (scale of 0 to 100), Johnsongrass",[19],0
same,"Plant response rating, Johnsongrass",[19]; 62 g ai/ha,0
same,"Plant response rating, Johnsongrass",[19]; 125 g ai/ha,0
same,"Plant response rating, Johnsongrass",[19]; 250 g ai/ha,25
O=C1NCC(c2cccc(OC(F)(F)C(F)F)c2)C1C(=O)Nc1ccccc1F (racemic) [Compound 695],"Plant response rating, Kochia",Kochia (Kochia scoparia) [1]; [20],30
same,"Plant response rating, Kochia",Kochia (Kochia scoparia) [1]; [21],90
same,"Plant response rating, Barnyardgrass",[2]; [20],90
same,"Plant response rating, Barnyardgrass",[2]; [21],90
same,"Plant response rating, Foxtail, Giant",[3]; [20],90
same,"Plant response rating, Foxtail, Giant",[3]; [21],90
same,"Plant response rating, Pigweed",[4]; [25],30
same,"Plant response rating, Pigweed",[4]; [21],40
same,"Plant response rating, Ragweed",[5]; [25],20
same,"Plant response rating, Ragweed",[5]; [21],40
same,"Plant response rating, Ryegrass, Italian",[6]; [25],40
same,"Plant response rating, Ryegrass, Italian",[6]; [21],30
same,"Plant response rating, Galium",[7]; [26],50
same,"Plant response rating, Galium",[7]; [23],40
same,"Plant response rating, Kochia",Kochia (Kochia scoparia) [8]; [26],30
same,"Plant response rating, Kochia",Kochia (Kochia scoparia) [8]; [23],50
same,"Plant response rating, Barnyardgrass",[9]; [22],80
same,"Plant response rating, Barnyardgrass",[9]; [23],90
same,"Plant response rating, Blackgrass",[10]; [22],0
same,"Plant response rating, Blackgrass",[10]; [23],40
same,"Plant response rating, Corn",corn (Zea mays); [26],80
same,"Plant response rating, Corn",corn (Zea mays); [23],80
same,"Plant response rating, Foxtail, Giant",[11]; [26],80
same,"Plant response rating, Foxtail, Giant",[11]; [23],80
same,"Plant response rating, Pigweed",[12]; [26],20
same,"Plant response rating, Pigweed",[12]; [23],30
same,"Plant response rating, Ragweed",[13]; [26],20
same,"Plant response rating, Ragweed",[13]; [23],40
same,"Plant response rating, Ryegrass, Italian",[14]; [26],0
same,"Plant response rating, Ryegrass, Italian",[14]; [23],20
same,"Plant response rating, Wheat",[15]; [26],20
same,"Plant response rating, Wheat",[15]; [23],40
same,"Plant response rating, Barnyardgrass",[16]; 500 g ai/ha,80
same,"Plant response rating, Ducksalad",[17]; 500 g ai/ha,100
same,"Plant response rating, Rice",rice (Oryra sativa); 500 g ai/ha,0
same,"Plant response rating, Sedge, Umbrella",[18]; 500 g ai/ha,0
same,"Plant response rating (scale of 0 to 100), Johnsongrass",[19],40
same,"Plant response rating, Johnsongrass",[19]; 62 g ai/ha,80
same,"Plant response rating, Johnsongrass",[19]; 125 g ai/ha,80
same,"Plant response rating, Johnsongrass",[19]; 250 g ai/ha,85
